In patent publication US10857113B2, “Bezafibrate for the treatment of cancer” (Cipla Limited, priority 2016, dated 2020):
pIC50: −log10 of the molar value. Read-outs that look alike come from different tables or passages of the source.

What was measured:
[1] = tested on: human tumor cell models for RCC; assay: In vitro 2D assay, all cell lines tested; format: cell-based; conditions: 2D model; for pIC50: Homo sapiens
Excerpt: Cell lines RXF 1183L, RXF 1220L, RXF 1781L, RXF 393L and RXF 486L were established at Oncotest from the corresponding human patient-derived xenograft. The cell lines 786-O, A-498, Caki-1 and SN12C were purchased from NCI (National Cancer Institute, Bethesda, Md., USA). ACHN was purchased from ECACC (European Collection of Cell Cultures, Salisbury, UK). Authenticity of cell lines was confirmed at the DSMZ by STR (short tandem repeat) analysis, a PCR based DNA-fingerprinting methodology.
Cell lines were routinely passaged once or twice weekly and maintained in culture for up to 20 passages. All cells were grown at 37° C. in a humidified atmosphere with 5% CO2 in RPMI 1640 medium (25 mM HEPES, with L-glutamine, # FG1385, Biochrom, Berlin, Germany) supplemented with 10% (v/v) fetal calf serum (Sigma, Taufkirchen, Germany) and 0.1 mg/mL gentamicin (Life Technologies, Karlsruhe, Germany).
Bezafibrate was dissolved at a concentration of 100 mM in 100% Methanol and next 1:5 diluted with cell culture media (20 mM, 20% Methanol). Starting with this solution, serial dilutions (1:1.6) were prepared with cell culture medium. Next, 150 μL of the serial dilutions were transferred to the assay plates upon removing the cell culture media of each well (complete change of medium on assay plates). […] The maximum methanol concentrations were 6% and 10%. No precipitation was observed.
Cells were harvested from exponential phase cultures, counted and plated in 96-well flat-bottom microtiter plates at a cell density of 4,000-12,000 cells/well depending on the cell line's growth rate. After a 24 hour recovery period to allow the cells to resume exponential growth, test compounds were added. Compounds were applied at 8 to 10 concentrations in duplicate and treatment continued for 96 hour. After 96 hour treatment of cells, 20 μL/well CellTiter-Blue® reagent was added. Following an incubation period of up to four hours, fluorescence (FU) was measured by using the Enspire Multimode Plate Reader (excitation λ=531 nm, emission λ=615 nm).
For calculations, the mean values of duplicate/quadruplicate (untreated control) data were used. Sigmoidal concentration-response curves were fitted to the data points (T/C values) obtained for each cell line using 4 parameter non-linear curve fit.

786-O = assay: In vitro 3D clonogenic assay; format: cell-based; conditions: Homo sapiens, 786-0, 3D model, colony formation, 8 to 13 days continuous exposure
Procedure: (§1) Cell lines were routinely passaged one or twice weekly. All cells were grown at 37° C. in a humidified atmosphere with 5% CO2 in RPMI 1640 medium (Biochrom) supplemented with 10% (v/v) fetal calf serum and 0.1 mg/mL gentamicin. The percentage of viable cells was determined in a Neubauer-hemocytometer using trypan blue exclusion.
(§2) Tumor xenografts (patient-derived, as well as cell line-derived xenografts) were passaged as subcutaneous xenografts in NMRI nu/nu mice. At a tumor volume of 400-1,000 mm^3 tumor-bearing mice were sacrificed and tumors were collected under sterile conditions without delay according to the relevant Oncotest SOPs and the relevant animal welfare guidelines published by the FELASA and the GV-SOLAS. Tumors were mechanically disaggregated and subsequently incubated with an enzyme cocktail consisting of collagenase type IV (41 U/mL), DNase I (125 U/mL), hyaluronidase type III (100 U/mL), and dispase II (1.0 U/mL) in RPMI 1640 medium (Life Technologies) at 37° C. for 60-120 minutes. Cells were passed through sieves of 100 μm and 40 μm mesh size (Cell Strainer, BD Falcon™), and washed with RPMI 1640 medium. The percentage of viable cells was determined in a Neubauer-hemocytometer using trypan blue exclusion. Aliquots of the cells were frozen down, and stored in liquid nitrogen. On each day of an experiment, a frozen aliquot of tumor cells was thawed and used for preparation of assay plates.
(§3) The clonogenic assay was carried out in a 96 well plate format using ultra low attachment plates. For each test, cells were prepared as described above and assay plates were prepared as follows: each test well contained a layer of semi-solid medium with tumor cells (50 and a second layer of medium supernatant with or without test compound (100 The cell layer consisted of 2.5·10^3 to 1·10^4 tumor cells per well, which were seeded in 50 μL/well cell culture medium (IMDM, supplemented with 20% (v/v) fetal calf serum, 0.01% (w/v) gentamicin, and 0.4% (w/v) agar). After 24 hours the test compounds were added after serial dilution in cell culture medium, and left on the cells for the duration of the experiment (continuous exposure, 100 μl drug overlay). Every plate included six untreated control wells and drug-treated groups in duplicate at 9 concentrations. Cultures were incubated at 37° C. and 7.5% CO2 in a humidified atmosphere for 8 to 13 days and monitored closely for colony growth using an inverted microscope. Within this period, ex vivo tumor growth led to the formation of colonies with a diameter of >50 μm. At the time of maximum colony formation, counts were performed with an automatic image analysis system (CellInsight NXT, Thermo Scientific). 48 hours prior to evaluation, vital colonies were stained with a sterile aqueous solution of 2-(4-iodophenyl)-3-(4-nitrophenyl)-5-phenyltetrazolium chloride (1 mg/ml, 100 μl/well).

A-498 = assay: In vitro 3D clonogenic assay; format: cell-based; conditions: Homo sapiens, A498, 3D model, colony formation, 8 to 13 days continuous exposure
Procedure: as §1, §2, §3

ACHN = assay: In vitro 3D clonogenic assay; format: cell-based; conditions: Homo sapiens, 3D model, colony formation, 8 to 13 days continuous exposure
Procedure: as §1, §2, §3

Caki-1 = assay: In vitro 3D clonogenic assay; format: cell-based; conditions: Homo sapiens, 3D model, colony formation, 8 to 13 days continuous exposure
Procedure: as §1, §2, §3

RXF 1183L = assay: In vitro 3D clonogenic assay; format: cell-based; conditions: Homo sapiens, 3D model, colony formation, 8 to 13 days continuous exposure
Procedure: as §1, §2, §3

RXF 1220L = assay: In vitro 3D clonogenic assay; format: cell-based; conditions: Homo sapiens, 3D model, colony formation, 8 to 13 days continuous exposure
Procedure: as §1, §2, §3

RXF 1781L = assay: In vitro 3D clonogenic assay; format: cell-based; conditions: Homo sapiens, 3D model, colony formation, 8 to 13 days continuous exposure
Procedure: as §1, §2, §3

RXF 393L = assay: In vitro 3D clonogenic assay; format: cell-based; conditions: Homo sapiens, 3D model, colony formation, 8 to 13 days continuous exposure
Procedure: as §1, §2, §3

RXF 486L = assay: In vitro 3D clonogenic assay; format: cell-based; conditions: Homo sapiens, 3D model, colony formation, 8 to 13 days continuous exposure
Procedure: as §1, §2, §3

SN12C = assay: In vitro 3D clonogenic assay; format: cell-based; conditions: Homo sapiens, 3D model, colony formation, 8 to 13 days continuous exposure
Procedure: as §1, §2, §3

[2] = background statement; cited from earlier work

CC(C)(Oc1ccc(CCNC(=O)c2ccc(Cl)cc2)cc1)C(=O)O [Bezafibrate]
IC50 values, overall anti-cancer activity ([1]; overall statement): low mM range
pIC50 ([1]; geometric mean over 10 cell lines, second run 381 to 10,240 μM, read-out: Geometric mean absolute IC50): 2.91
pIC50 ([1]; geometric mean over 10 cell lines, read-out: Geometric mean relative IC50): 2.81
pIC50 ([1]; first run 93 to 4,000 μM, read-out: Geometric mean absolute IC50): 2.75
pIC50 (786-O; read-out: Absolute IC50): 2.87
pIC50 (786-O; read-out: Relative IC50): 2.83
pIC50 (A-498; read-out: Absolute IC50): 3.12
pIC50 (A-498; read-out: Relative IC50): 3.11
pIC50 (ACHN; read-out: Absolute IC50): 2.99
pIC50 (ACHN; read-out: Relative IC50): 2.98
pIC50 (Caki-1; read-out: Absolute IC50): 2.89
pIC50 (Caki-1; read-out: Relative IC50): 2.89
pIC50 (RXF 1183L; read-out: Absolute IC50): 3.22
pIC50 (RXF 1183L; read-out: Relative IC50): 3.15
pIC50 (RXF 1220L; read-out: Absolute IC50): 2.93
pIC50 (RXF 1220L; read-out: Relative IC50): 2.91
pIC50 (RXF 1781L; read-out: Absolute IC50): 2.99
pIC50 (RXF 1781L; read-out: Relative IC50): 2.96
pIC50 (RXF 393L; read-out: Absolute IC50): 2.90
pIC50 (RXF 393L; read-out: Relative IC50): 2.89
pIC50 (RXF 486L; read-out: Absolute IC50): 3.00
pIC50 (RXF 486L; read-out: Relative IC50): 3.02
pIC50 (SN12C; read-out: Absolute IC50): 3.33
pIC50 (SN12C; read-out: Relative IC50): 3.33
Absorption following oral administration [2]: well absorbed
